Experimental data taken from US20240210412A1, “SULFONYL-TRIAZOLE COMPOUNDS USEFUL AS LIGANDS AND INHIBITORS OF PROSTAGLANDIN REDUCTASE 2” (University of Virginia Patent Foundation, priority 2021, published 2024).

Tests used:
Assay in all cases: SILAC LC-MS ABPP
Format in all cases: cell-based
Details in all cases: 25 μM 2 h, live DM93 cells
Q9UQ35 = target: T1, Q9UQ35 (Homo sapiens, UniProt Q9UQ35)
T1 construct: endogenous in cells; host or cells: DM93 cells (SILAC)
Outline: (§1)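 Ligand engagement is measured as loss of HHS-475 probe labelling at specific tyrosines. SILAC DM93 melanoma cells were treated in situ (25 μM ligand vs DMSO, 2 h, 37 °C; then 100 μM probe, 2 h), and modified peptides were quantified by high-resolution LC-MS/MS after desthiobiotin tagging and avidin capture.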

Q9BUJ2 = target: T2, Q9BUJ2 (Homo sapiens, UniProt Q9BUJ2)
T2 construct: endogenous in cells; host or cells: DM93 cells (SILAC), treated live; soluble proteome analysed
Outline: as §1

P50749 = target: T3, P50749 (Homo sapiens, UniProt P50749)
T3 construct: Probe-modified proteins from the soluble fraction were conjugated to a desthiobiotin-azide tag; endogenous in cells; host or cells: DM93 cells (SILAC)
T3 sequence (P50749 whole entry): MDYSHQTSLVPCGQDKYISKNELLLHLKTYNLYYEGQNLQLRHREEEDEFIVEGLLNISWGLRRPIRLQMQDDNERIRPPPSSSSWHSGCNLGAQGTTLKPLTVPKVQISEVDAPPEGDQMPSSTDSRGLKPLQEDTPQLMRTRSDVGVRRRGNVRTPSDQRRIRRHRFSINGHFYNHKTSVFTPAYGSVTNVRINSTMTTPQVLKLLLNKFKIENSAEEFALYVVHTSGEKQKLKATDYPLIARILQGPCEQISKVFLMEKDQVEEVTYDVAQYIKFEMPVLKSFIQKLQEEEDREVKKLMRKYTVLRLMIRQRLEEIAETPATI
Outline: as §1

Q9H223 = target: T4, Q9H223 (Homo sapiens, UniProt Q9H223)
T4 construct: endogenous in cells; host or cells: DM93 cells (SILAC), treated live; soluble proteome analysed
Outline: as §1

P51665 = target: T5, P51665 (Homo sapiens, UniProt P51665)
T5 construct: endogenous in cells; host or cells: DM93 cells (SILAC)
Outline: as §1

P43490 = target: T6, P43490 (Homo sapiens, UniProt P43490)
T6 construct: endogenous in cells; host or cells: DM93 cells (SILAC)
Outline: as §1

Q13535 = target: T7, Q13535 (Homo sapiens, UniProt Q13535)
T7 construct: performing SuTEx compound screening directly in cells; endogenous in cells; host or cells: DM93 cells (SILAC), soluble fraction
Outline: as §1

Q8N6H7 = target: T8, Q8N6H7 (Homo sapiens, UniProt Q8N6H7)
T8 construct: endogenous in cells; host or cells: DM93 cells (SILAC), live-cell treatment
Outline: as §1

Q9Y2W1 = target: T9, Q9Y2W1 (Homo sapiens, UniProt Q9Y2W1)
T9 construct: endogenous in cells; host or cells: DM93 cells (SILAC)
T9 sequence (Q9Y2W1 whole entry): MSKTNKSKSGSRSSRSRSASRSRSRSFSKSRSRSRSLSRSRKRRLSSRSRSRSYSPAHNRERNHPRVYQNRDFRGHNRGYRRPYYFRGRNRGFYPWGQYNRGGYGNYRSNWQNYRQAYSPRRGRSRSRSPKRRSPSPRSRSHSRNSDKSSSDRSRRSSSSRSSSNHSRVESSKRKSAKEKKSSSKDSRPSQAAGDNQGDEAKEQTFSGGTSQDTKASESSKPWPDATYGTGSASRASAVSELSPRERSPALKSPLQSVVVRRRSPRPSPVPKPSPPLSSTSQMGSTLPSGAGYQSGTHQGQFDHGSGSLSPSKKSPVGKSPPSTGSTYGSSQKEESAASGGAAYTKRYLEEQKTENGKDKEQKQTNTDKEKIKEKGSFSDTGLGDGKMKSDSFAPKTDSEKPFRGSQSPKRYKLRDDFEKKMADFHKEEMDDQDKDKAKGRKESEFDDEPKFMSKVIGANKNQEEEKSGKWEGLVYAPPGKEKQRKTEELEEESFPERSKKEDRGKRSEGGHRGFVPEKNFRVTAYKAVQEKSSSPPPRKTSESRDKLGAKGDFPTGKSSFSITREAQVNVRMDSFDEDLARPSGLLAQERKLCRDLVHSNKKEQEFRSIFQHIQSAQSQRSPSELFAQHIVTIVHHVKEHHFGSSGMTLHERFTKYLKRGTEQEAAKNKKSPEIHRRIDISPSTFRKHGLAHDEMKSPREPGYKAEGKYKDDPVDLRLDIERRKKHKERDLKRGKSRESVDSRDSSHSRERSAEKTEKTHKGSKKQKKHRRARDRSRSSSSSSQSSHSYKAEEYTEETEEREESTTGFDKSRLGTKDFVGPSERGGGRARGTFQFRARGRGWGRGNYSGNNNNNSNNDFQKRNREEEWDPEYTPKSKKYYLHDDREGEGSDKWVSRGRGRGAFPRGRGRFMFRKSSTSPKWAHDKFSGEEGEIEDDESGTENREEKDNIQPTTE
Outline: as §1

Q14980 = target: T10, Q14980 (Homo sapiens, UniProt Q14980)
T10 construct: performing SuTEx compound screening directly in cells; endogenous in cells; host or cells: DM93 cells (SILAC), soluble fraction
T10 sequence (Q14980 whole entry): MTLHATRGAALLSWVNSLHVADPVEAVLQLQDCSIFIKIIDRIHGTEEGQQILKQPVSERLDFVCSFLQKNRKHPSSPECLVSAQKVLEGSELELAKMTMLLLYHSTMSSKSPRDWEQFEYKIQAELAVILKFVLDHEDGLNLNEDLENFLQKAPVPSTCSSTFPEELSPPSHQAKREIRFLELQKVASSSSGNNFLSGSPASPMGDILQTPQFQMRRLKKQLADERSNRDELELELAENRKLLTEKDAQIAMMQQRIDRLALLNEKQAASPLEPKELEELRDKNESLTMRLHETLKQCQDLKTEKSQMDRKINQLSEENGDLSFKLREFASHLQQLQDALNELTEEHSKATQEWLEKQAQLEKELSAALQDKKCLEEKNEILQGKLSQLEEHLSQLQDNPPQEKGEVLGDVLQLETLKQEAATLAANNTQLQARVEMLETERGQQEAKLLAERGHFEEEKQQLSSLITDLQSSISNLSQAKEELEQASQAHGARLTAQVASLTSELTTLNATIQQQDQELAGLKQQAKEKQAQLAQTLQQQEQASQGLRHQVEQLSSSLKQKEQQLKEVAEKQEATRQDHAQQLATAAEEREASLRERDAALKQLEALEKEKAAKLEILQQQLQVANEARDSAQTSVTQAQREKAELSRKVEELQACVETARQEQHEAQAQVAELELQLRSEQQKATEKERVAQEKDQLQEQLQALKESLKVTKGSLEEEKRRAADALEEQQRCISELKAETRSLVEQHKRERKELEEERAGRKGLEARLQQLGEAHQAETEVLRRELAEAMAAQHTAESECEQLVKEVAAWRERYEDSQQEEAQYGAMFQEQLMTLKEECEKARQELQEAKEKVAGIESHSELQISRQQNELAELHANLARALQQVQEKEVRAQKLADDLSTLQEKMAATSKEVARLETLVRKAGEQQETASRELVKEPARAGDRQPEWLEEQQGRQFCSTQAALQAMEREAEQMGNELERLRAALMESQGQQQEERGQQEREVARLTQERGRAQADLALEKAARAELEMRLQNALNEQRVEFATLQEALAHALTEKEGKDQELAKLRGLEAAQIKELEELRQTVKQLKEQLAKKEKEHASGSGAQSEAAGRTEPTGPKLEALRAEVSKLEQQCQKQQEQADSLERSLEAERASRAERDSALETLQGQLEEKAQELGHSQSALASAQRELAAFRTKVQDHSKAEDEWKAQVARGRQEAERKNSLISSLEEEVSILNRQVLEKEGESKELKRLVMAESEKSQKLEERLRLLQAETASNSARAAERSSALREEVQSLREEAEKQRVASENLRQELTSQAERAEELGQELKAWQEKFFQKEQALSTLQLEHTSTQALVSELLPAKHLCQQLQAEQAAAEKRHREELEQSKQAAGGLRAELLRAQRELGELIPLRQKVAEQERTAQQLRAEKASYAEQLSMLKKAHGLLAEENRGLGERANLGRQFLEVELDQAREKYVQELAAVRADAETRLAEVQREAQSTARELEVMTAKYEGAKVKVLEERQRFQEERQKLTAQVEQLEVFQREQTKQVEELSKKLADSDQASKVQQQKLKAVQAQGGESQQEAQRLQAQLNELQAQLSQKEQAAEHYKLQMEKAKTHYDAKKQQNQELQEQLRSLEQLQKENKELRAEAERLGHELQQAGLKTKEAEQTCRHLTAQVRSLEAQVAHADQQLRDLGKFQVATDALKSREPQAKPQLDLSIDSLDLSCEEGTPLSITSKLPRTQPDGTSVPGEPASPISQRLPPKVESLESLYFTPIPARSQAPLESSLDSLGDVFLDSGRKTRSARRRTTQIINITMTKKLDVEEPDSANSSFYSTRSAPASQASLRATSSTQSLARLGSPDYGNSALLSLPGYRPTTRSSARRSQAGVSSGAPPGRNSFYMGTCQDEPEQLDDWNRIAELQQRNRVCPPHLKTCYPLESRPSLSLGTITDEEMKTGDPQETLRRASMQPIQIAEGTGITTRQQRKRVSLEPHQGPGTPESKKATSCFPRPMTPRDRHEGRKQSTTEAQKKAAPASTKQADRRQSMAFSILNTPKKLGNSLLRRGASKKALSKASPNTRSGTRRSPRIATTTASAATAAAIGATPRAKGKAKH
Outline: as §1

Q96BR5 = target: T11, Q96BR5 (Homo sapiens, UniProt Q96BR5)
T11 construct: endogenous in cells; host or cells: DM93 cells (SILAC), treated live; soluble proteome analysed
Outline: as §1

P57081 = target: T12, P57081 (Homo sapiens, UniProt P57081)
T12 construct: Probe-modified proteins from the soluble fraction were conjugated to a desthiobiotin-azide tag; endogenous in cells; host or cells: DM93 cells (SILAC)
T12 sequence (P57081 whole entry): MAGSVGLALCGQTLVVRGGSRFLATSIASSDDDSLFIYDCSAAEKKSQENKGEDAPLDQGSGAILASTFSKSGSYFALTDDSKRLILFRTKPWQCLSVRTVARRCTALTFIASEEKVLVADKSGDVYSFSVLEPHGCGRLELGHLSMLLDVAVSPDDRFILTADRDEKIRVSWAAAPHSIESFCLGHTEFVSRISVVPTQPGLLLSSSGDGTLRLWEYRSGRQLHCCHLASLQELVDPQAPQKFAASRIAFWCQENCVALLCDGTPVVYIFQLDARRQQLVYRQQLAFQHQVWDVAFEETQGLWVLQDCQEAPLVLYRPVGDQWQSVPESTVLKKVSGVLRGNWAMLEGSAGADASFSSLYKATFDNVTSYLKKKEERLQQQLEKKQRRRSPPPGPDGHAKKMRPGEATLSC
Outline: as §1

P18669 = target: T13, P18669 (Homo sapiens, UniProt P18669)
T13 construct: endogenous in cells; host or cells: DM93 (SILAC)
T13 sequence (P18669 whole entry): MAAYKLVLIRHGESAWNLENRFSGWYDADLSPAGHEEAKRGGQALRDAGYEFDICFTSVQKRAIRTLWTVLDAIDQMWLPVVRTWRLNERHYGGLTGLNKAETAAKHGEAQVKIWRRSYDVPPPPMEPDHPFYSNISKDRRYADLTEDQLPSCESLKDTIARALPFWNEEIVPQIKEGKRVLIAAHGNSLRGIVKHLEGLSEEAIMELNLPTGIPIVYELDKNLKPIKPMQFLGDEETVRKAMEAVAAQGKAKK
Outline: as §1

Q14978 = target: T14, Q14978 (Homo sapiens, UniProt Q14978)
T14 construct: performing SuTEx compound screening directly in cells; endogenous in cells; host or cells: DM93 cells (SILAC), soluble fraction
T14 sequence (Q14978 whole entry): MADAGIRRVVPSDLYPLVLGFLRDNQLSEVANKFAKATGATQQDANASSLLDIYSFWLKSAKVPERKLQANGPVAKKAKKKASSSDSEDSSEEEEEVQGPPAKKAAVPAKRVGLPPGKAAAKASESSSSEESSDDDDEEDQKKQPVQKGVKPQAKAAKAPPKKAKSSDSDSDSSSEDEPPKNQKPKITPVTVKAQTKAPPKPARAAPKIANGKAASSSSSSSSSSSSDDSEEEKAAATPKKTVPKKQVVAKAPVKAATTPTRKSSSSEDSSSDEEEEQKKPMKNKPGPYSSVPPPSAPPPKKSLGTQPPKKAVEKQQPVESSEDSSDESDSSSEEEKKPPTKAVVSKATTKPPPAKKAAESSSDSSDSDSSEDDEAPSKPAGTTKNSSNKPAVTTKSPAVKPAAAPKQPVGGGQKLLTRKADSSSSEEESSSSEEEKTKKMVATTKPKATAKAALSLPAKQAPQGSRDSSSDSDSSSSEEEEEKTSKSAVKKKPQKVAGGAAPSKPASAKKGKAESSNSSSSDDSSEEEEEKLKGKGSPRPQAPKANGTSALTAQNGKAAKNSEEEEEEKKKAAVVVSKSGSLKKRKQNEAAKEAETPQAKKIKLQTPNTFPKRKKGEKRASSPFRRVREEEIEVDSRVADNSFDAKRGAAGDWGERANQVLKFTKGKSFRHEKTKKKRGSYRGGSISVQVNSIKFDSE
Outline: as §1

Q86VS8 = target: T15, Q86VS8 (Homo sapiens, UniProt Q86VS8)
T15 construct: endogenous in cells; host or cells: DM93 cells (SILAC), live-cell treatment
Outline: as §1

Q969T7 = target: T16, Q969T7 (Homo sapiens, UniProt Q969T7)
T16 construct: endogenous in cells; host or cells: DM93 cells (SILAC), live-cell treatment
Outline: as §1

P60900 = target: T17, P60900 (Homo sapiens, UniProt P60900)
T17 construct: endogenous in cells; host or cells: DM93 cells (SILAC)
Outline: as §1

Q9Y2S7 = target: T18, Q9Y2S7 (Homo sapiens, UniProt Q9Y2S7)
T18 construct: endogenous in cells; host or cells: DM93 cells (SILAC)
T18 sequence (Q9Y2S7 52-368): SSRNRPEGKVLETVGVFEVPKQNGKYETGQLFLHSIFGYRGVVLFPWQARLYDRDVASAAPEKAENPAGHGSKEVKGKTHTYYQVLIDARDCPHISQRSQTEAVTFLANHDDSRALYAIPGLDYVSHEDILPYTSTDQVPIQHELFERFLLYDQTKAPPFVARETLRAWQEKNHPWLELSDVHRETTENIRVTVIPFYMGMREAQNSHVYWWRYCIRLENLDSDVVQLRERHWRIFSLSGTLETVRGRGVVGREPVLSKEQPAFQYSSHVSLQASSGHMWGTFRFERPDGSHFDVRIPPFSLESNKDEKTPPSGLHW
Outline: as §1

Q9Y5K6 = target: T19, Q9Y5K6 (Homo sapiens, UniProt Q9Y5K6)
T19 construct: endogenous in cells; host or cells: DM93 cells (SILAC)
Outline: as §1

SMILES: O=C(NC1CCCCC1)c1ccc(S(=O)(=O)n2cncn2)cc1 [HHS-0301, 4-((1H-1,2,4-triazol-1-yl)sulfonyl)-N-cyclohexylbenzamide]
- liganded tyrosine site 2390 (Q9UQ35): HHS0301.Y (tyrosine sites that showed >80% reductions (SR >5) in probe labeling in cells treated with compounds (liganded sites))
- liganded tyrosine site 111 (Q9BUJ2): HHS0301.Y|HHS0701.Y (tyrosine sites that showed >80% reductions (SR >5) in probe labeling in cells treated with compounds (liganded sites))

SMILES: O=C(c1ccc(S(=O)(=O)n2cncn2)cc1)N1CCC(c2ccccc2)CC1 [HHS-0701, (4-((1H-1,2,4-triazol-1-yl)sulfonyl)phenyl)(4-phenylpiperidin-1-yl)methanone]
- liganded tyrosine site 270 (P50749): HHS0701.Y (tyrosine sites that showed >80% reductions (SR >5) in probe labeling in cells treated with compounds (liganded sites))
- liganded tyrosine site 70 (Q9H223): HHS0701.Y (tyrosine sites that showed >80% reductions (SR >5) in probe labeling in cells treated with compounds (liganded sites))
- liganded tyrosine site 74 (P51665): HHS0701.Y (tyrosine sites that showed >80% reductions (SR >5) in probe labeling in cells treated with compounds (liganded sites))
- liganded tyrosine site 188 (P43490): HHS0701.Y (tyrosine sites that showed >80% reductions (SR >5) in probe labeling in cells treated with compounds (liganded sites))
- liganded tyrosine site 2067 (Q13535): HHS0701.Y (tyrosine sites that showed >80% reductions (SR >5) in probe labeling in cells treated with compounds (liganded sites))
- liganded tyrosine site 445 (Q8N6H7): HHS0701.Y (tyrosine sites that showed >80% reductions (SR >5) in probe labeling in cells treated with compounds (liganded sites))

SMILES: O=C(NCC1CC1)c1ccc(S(=O)(=O)n2cncn2)cc1 [HHS-0201, 4-((1H-1,2,4-triazol-1-yl)sulfonyl)-N-(cyclopropylmethyl)benzamide]
- liganded tyrosine site 344 (Q9Y2W1): HHS0201.Y|HHS0301.Y (tyrosine sites that showed >80% reductions (SR >5) in probe labeling in cells treated with compounds (liganded sites))

SMILES: O=C(NCc1ccccc1)c1ccc(S(=O)(=O)n2cncn2)cc1 [HHS-0401, 4-((1H-1,2,4-triazol-1-yl)sulfonyl)-N-benzylbenzamide]
- liganded tyrosine site 1836 (Q14980): HHS0401.Y (tyrosine sites that showed >80% reductions (SR >5) in probe labeling in cells treated with compounds (liganded sites))
- liganded tyrosine site 72 (Q96BR5): HHS0401.Y (tyrosine sites that showed >80% reductions (SR >5) in probe labeling in cells treated with compounds (liganded sites))
- liganded tyrosine site 371 (P57081): HHS0401.Y (tyrosine sites that showed >80% reductions (SR >5) in probe labeling in cells treated with compounds (liganded sites))
- liganded tyrosine site 119 (P18669): HHS0401.Y (tyrosine sites that showed >80% reductions (SR >5) in probe labeling in cells treated with compounds (liganded sites))

SMILES: O=C(NC1CC1)c1ccc(S(=O)(=O)n2cncn2)cc1 [HHS-0101, 4-((1H-1,2,4-triazol-1-yl)sulfonyl)-N-cyclopropylbenzamide]
- liganded tyrosine site 289 (Q14978): HHS0101.Y|HHS0701.Y (tyrosine sites that showed >80% reductions (SR >5) in probe labeling in cells treated with compounds (liganded sites))
- liganded tyrosine site 323 (Q86VS8): HHS0101.Y|HHS0401.Y|HHS0701.Y (tyrosine sites that showed >80% reductions (SR >5) in probe labeling in cells treated with compounds (liganded sites))
- liganded tyrosine site 85 (Q969T7): HHS0101.Y (tyrosine sites that showed >80% reductions (SR >5) in probe labeling in cells treated with compounds (liganded sites))
- liganded tyrosine site 103 (P60900): HHS0101.Y|HHS0201.Y|HHS0401.Y (tyrosine sites that showed >80% reductions (SR >5) in probe labeling in cells treated with compounds (liganded sites))
- liganded tyrosine site 168 (Q9Y2S7): HHS0101.Y (tyrosine sites that showed >80% reductions (SR >5) in probe labeling in cells treated with compounds (liganded sites))
- liganded tyrosine site 361 (Q9Y5K6): HHS0101.Y|HHS0201.Y|HHS0401.Y (tyrosine sites that showed >80% reductions (SR >5) in probe labeling in cells treated with compounds (liganded sites))
